# Active and inactive are the calls of the source. The rule behind the calls is not given here.
# Experiment: modifiers of cytoskeleton assembly, confirmation, imaging, high-content imaging, retest and dose response (AID 1249);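 note: compound exposure lasted 24 h before fixation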;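 for inhibition: plate controls were untreated cells for no effect and reference compound treated cells for full effect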
# Conditions: cell-based imaging, cytoskeleton assembly phenotype, high content; at 2 µM; stronger effect = higher value
row,SMILES,inhibition
1,COc1ccc(Cn2c(CCC(=O)O)nc3cccnc32)cc1,-3% (inactive)
2,C/C(Cl)=C\Cn1c(NCCCn2ccnc2)nc2c1c(=O)n(C)c(=O)n2C,-1.5% (inactive)
3,NC(=S)N/N=C\c1ccc(-c2cccc(Cl)c2Cl)o1,-8.9% (inactive)
4,Cc1ccc(Nc2nc(CSc3nnnn3C)cs2)cc1,-5.6% (inactive)
5,Cc1ccc(C(=O)CSc2nnc(COc3ccc(C#N)cc3)n2-c2ccccc2)cc1,-3% (inactive)
6,Cc1ccc(-c2nc(NC(=O)c3nn(C)cc3[N+](=O)[O-])sc2C)cc1,5.1% (inactive)
7,COC(=O)c1[nH]c2cc(OC)ccc2c1NC(=O)CN1CCC(C(N)=O)(N2CCCCC2)CC1,3.6% (inactive)
8,COc1ccc(C2=Nn3c(nnc3-c3ccccc3OC)SC2)cc1OC,0.9% (inactive)
9,COc1cccc(C(=O)COc2cccc(NC(=O)c3cccc([N+](=O)[O-])c3)c2)c1,-2.2% (inactive)
10,Cc1cccc(OCCN2CSC(=S)N(C)C2)c1,2.2% (inactive)
11,O=C(c1ccc2c(c1)ncn2C1CCCCC1)N1CCC2(CC1)OCCO2,3% (inactive)
12,O=c1c2ccccc2nnn1CSc1ncnc2ccccc12,-4% (inactive)
13,CC(=O)c1cccc(NS(=O)(=O)c2c(C)noc2C)c1,-13.9% (inactive)
14,CSCCC(NC(=O)OCc1ccccc1)C(=O)O (stereo not drawn),-2% (inactive)
15,O=C(NC(Cc1c[nH]c2ccccc12)C(=O)O)c1ccco1 (stereo not drawn),-3% (inactive)
16,CCCCN(C)CCCNC(=O)c1ccc2c(c1)NC(=O)C(N1CCOCC1)S2 (stereo not drawn),5.4% (inactive)
17,COc1ccc(CSc2nc3ccccc3[nH]2)cc1,9.9% (inactive)
18,CC1=C(C#N)C(Nc2cccc(C)n2)(C(F)(F)F)C(=O)N1 (stereo not drawn),7% (inactive)
19,CCc1ccc2oc(-c3cc(N)ccc3O)nc2c1,-11.6% (inactive)
20,C=CCOC(=O)C1=C(C)OC(N)=C(C#N)C12C(=O)N(CN1CCOCC1)c1ccccc12 (stereo not drawn),-12.8% (inactive)
21,Cc1cc(OCc2ccc(F)cc2)nc(-c2ccccc2O)n1,2.1% (inactive)
22,CCC(=O)Nc1cccc(C(=O)/C=C/c2cc(Br)ccc2OC)c1,0% (inactive)
23,O=C(O)C1CC=CCC1C(=O)N1CCCC1 (stereo not drawn),5.5% (inactive)
24,CCOC(=O)c1ccc(-n2c(=S)sc3c(=O)[nH]c(C)nc32)cc1,3.6% (inactive)
25,OCCN=C1CCCc2c1[nH]c1ccc(Br)cc21,-20.7% (inactive)
26,C=CCn1c(SCC(=O)Nc2ccc(C(=O)OCC)cc2)nnc1-c1sc(N)nc1C,-0.9% (inactive)

row,SMILES,inhibition
1,O=C(NC1CCCCC1)N(CCN1CCOCC1)Cc1cc2cc3c(cc2[nH]c1=O)OCCO3,32.9% (inactive)
2,CCOc1ccc(C=O)cc1CN1CCCCC1,-10% (inactive)
3,CC(C)(C)C(=O)/C(=C\c1cccc([N+](=O)[O-])c1)n1cncn1,0.1% (inactive)
4,OC1(c2cccc(C(F)(F)F)c2)CCN(c2ncnc3c2[nH]c2ccc(F)cc23)CC1,7.8% (inactive)
5,Cn1cc(-c2nnnn2-c2ccc(Cl)cc2)c(=O)c2ccccc21,-6.6% (inactive)
6,Nn1c(SCC(=O)Nc2ccc3c(c2)OCCO3)nnc1C(F)(F)F,-22.1% (inactive)
7,COc1ccc(N2C(=O)CC(NC3CCCCNC3=O)C2=O)cc1 (stereo not drawn),-8.6% (inactive)
8,Cc1nonc1NC(=O)CSc1nc(C2CCCCC2)nc2ccccc12,-6.5% (inactive)
9,Cc1oc(-c2ccc(Cl)cc2)cc1-c1nn2c(-c3ccoc3C)nnc2s1,0.3% (inactive)
10,CCS(=O)(=O)N1CCC(C(=O)NC2CCCCC2)CC1,3.1% (inactive)
11,FC(F)(F)c1cc(-c2ccc3c(c2)OCO3)nc(NCc2ccco2)n1,-1.9% (inactive)
12,COc1ccc(CC(=O)OCc2cc3ccc(C)cc3[nH]c2=O)cc1,5.4% (inactive)
13,O=C(Nc1ncc2c(n1)CC(c1ccco1)CC2=O)c1ccc(Cl)cc1 (stereo not drawn),-4.9% (inactive)
14,O=C(O)CCC(=O)NC1CCCCCCC1,3.8% (inactive)
15,COC(=O)CCSc1nccn1Cc1ccccc1,-9.8% (inactive)
16,Cc1cc(C)n(C(=O)c2ccc(NC(=O)C3COc4ccccc4O3)cc2)n1 (stereo not drawn),1.1% (inactive)
17,CCCCCCCC(=O)N/N=C(\C)c1cccnc1,2.2% (inactive)
18,COc1cc(C(=O)N2CCN(c3cc(Cl)ccc3Cl)CC2)cc(OC)c1OC,-2.9% (inactive)
19,CCOC(=O)c1cnc(-n2nc(C)cc2C)nc1NCc1ccccc1,-4.4% (inactive)
20,CSc1nc2nccc(-c3ccc(Oc4ccccc4)cc3)n2n1,-15.1% (inactive)
21,COc1ccc(S(=O)(=O)N2CCCC2C(=O)Nc2ccc(C)cc2)cc1 (stereo not drawn),3.2% (inactive)
22,CC(C)n1c(C(=O)OCC(=O)NCc2ccc3c(c2)OCO3)cc2sccc21,14.1% (inactive)
23,CC(C)Sc1nc2c(c(=O)n1-c1ccc(F)cc1)SCC2,-6.3% (inactive)
24,Cc1ccc(-n2c([O-])nc(-[n+]3ccccc3)c2C=O)cc1,-7.2% (inactive)
25,Cc1cccnc1Nc1nc(-c2ccccn2)cs1,-5.7% (inactive)
26,O=S(=O)(c1ccc(Cl)cc1)c1snnc1-c1ccccc1,9.2% (inactive)

row,SMILES,inhibition
1,O=C(COC(=O)C1(c2ccccc2F)CCCC1)NC1CCS(=O)(=O)C1 (stereo not drawn),-1% (inactive)
2,CC(C)C(=O)Nc1ccc(C(=O)NNC(=O)NC2CCCCC2)cc1,-9.2% (inactive)
3,CC1=C(C(=O)OCCOC(C)C)C(c2cccnc2)C2=C(CCCC2=O)N1 (stereo not drawn),-18.2% (inactive)
4,Cc1ccccc1CS(=O)(=O)c1nnc([C@H](Cc2ccccc2)NC(=O)OC(C)(C)C)o1,0.1% (inactive)
5,COc1ccc(NC(=O)/C(Cl)=C(/Cl)S(=O)(=O)Cc2ccc(C)cc2)cn1,5.2% (inactive)
6,O=C(Cc1ccc(-n2cccc2)cc1)NC1CCCCCC1,-6.9% (inactive)
7,COc1cc2[nH]cc(C(=O)NCCc3ccccc3)c(=O)c2cc1OC,1.5% (inactive)
8,CCn1c(SCC(=O)Nc2ccc(C(=O)OC)cc2)nnc1-c1cccs1,0.4% (inactive)
9,CC(=O)N1CN2CN(C(C)=O)CC(C(=O)c3ccccc3)(C2)C1,-10.6% (inactive)
10,Nc1sccc1C(=O)c1ccc(Cl)cc1,-15.5% (inactive)
11,CC/C(=N\NC(=O)CNC(=O)/C=C/c1ccco1)c1ccccc1,-9.3% (inactive)
12,CCOC(=O)c1c(C)c(C(=O)O)n(C)c1C,-14.7% (inactive)
13,Cc1ccccc1OCC(=O)Nc1ccc2c(c1)COC2=O,-15.6% (inactive)
14,CCCCCCOC(=O)NCC(O)c1ccccc1 (stereo not drawn),9.1% (inactive)
15,Cn1nc(C(=O)NCC2CCCO2)c2ccccc2c1=O (stereo not drawn),0% (inactive)
16,COc1ccc(-n2nnnc2S(=O)(=O)CC(=O)N2CCCCC2)cc1,0.7% (inactive)
17,C[n+]1ccc(/C=C/c2ccc(Br)cc2)cc1,7.4% (inactive)
18,Cc1ccc(S(=O)(=O)Cn2nnnc2C(C(C)C)N2CCN(c3nc4ccccc4s3)CC2)cc1 (stereo not drawn),4.2% (inactive)
19,CN(C)c1cccc(C(=O)Nc2ccc(N3CCOCC3)cc2)c1,-5.4% (inactive)
20,Cc1nnc(SCc2cn3ccsc3n2)n(N)c1=O,-0.8% (inactive)
21,CSc1nnc2n(-c3ccccc3)c(=O)c3c4c(sc3n12)CCC4,8.1% (inactive)
22,CC(C)NC1CS(=O)(=O)CC1O (stereo not drawn),4.9% (inactive)
23,Cc1cnc(NC(=O)C2CCCC2)s1,-5.2% (inactive)
24,COc1ccc(O)c(C=Nc2cc(C)on2)c1,-0.2% (inactive)
25,O=C(c1ccc2snnc2c1)N1CCSCC1,-15.8% (inactive)
26,CC1(C)Cc2c(oc3ncn4ncnc4c23)CO1,2.7% (inactive)

row,SMILES,inhibition
1,Cc1nn(-c2cc(C)c3ccccc3n2)c2c1C1C(C2)C1(C)C (stereo not drawn),3.3% (inactive)
2,CC(NC(=O)COC(=O)Cc1ccsc1)C1CC2CCC1C2 (stereo not drawn),-7.6% (inactive)
3,CC(=NCCCO)c1c(O)n(Cc2ccccc2)c(=O)[nH]c1=O,3.6% (inactive)
4,O=C(CN1CCC(c2nc3ccccc3s2)CC1)NCc1cccs1,4% (inactive)
5,COc1ccc(C(=O)C(CN2CCCC2)c2ccccc2)cc1 (stereo not drawn),8.8% (inactive)
6,Cc1ccc(OCc2ccoc2C(=O)O)cc1C,-8.8% (inactive)
7,C=CCn1c(SCc2c(C)noc2C)nc2ccccc2c1=O,4.2% (inactive)
8,Cc1ccc(-n2ncc3c(N4CCN(c5ccccc5)CC4)ncnc32)c(C)c1,-18.4% (inactive)
9,O=C(CS(=O)(=O)c1cn(Cc2cccc(F)c2)c2ccccc12)N1CCCCC1,-1.5% (inactive)
10,O=C(NC(NC1CCS(=O)(=O)C1)C(=O)c1cccs1)c1ccccc1 (stereo not drawn),6.8% (inactive)
11,O=C(N/N=C/c1ccc[nH]1)c1sc2ccccc2c1Cl,-8.7% (inactive)
12,Cc1cc(C)c(/C=N/NC(N)=O)c(C)c1/C=N/NC(N)=O,-10% (inactive)
13,C=CCOc1c2ccc(C(=O)NCc3ccccc3OC)cc2nn1C,-6.1% (inactive)
14,O=C1C(=O)c2ccccc2-c2ccccc21,-13.5% (inactive)
15,COc1ccc(Cn2nnnc2C(c2cccs2)N2CCSCC2)cc1 (stereo not drawn),-3.9% (inactive)
16,CCn1c(Cc2ccccc2)nnc1SCC(=O)NC1CC1,10.7% (inactive)
17,Cc1cc(C(=O)NN=C2C3CC4CC(C3)CC2C4)c2ccccc2n1,-3.8% (inactive)
18,CCN(Cc1cc2cc(C)ccc2[nH]c1=O)C(=O)c1cccc(OC)c1,2.3% (inactive)
19,CC(C)c1nnc(NC(=O)CCC(=O)N2CCN(C3CCCCC3)CC2)s1,3.6% (inactive)
20,O=C(NC(Nc1nc2ccc([N+](=O)[O-])cc2s1)(C(F)(F)F)C(F)(F)F)c1ccccc1,-15.3% (inactive)
21,Cn1c(SCC(=O)NC2CCCCC2)nnc1-c1cccc(N)c1,-8.2% (inactive)
22,O=C(N/N=C/C=C/c1ccccc1)c1n[nH]c2c1CCC2,2% (inactive)
23,O=C(O)Cc1ccc(NC(=O)C2CC=CCC2C(=O)O)cc1 (stereo not drawn),-9.1% (inactive)
24,CCNc1nc(OC)nc(Oc2ccc(C(=O)OC)cc2)n1,-22.8% (inactive)

# Same assay, conditions: cell-based imaging, cytoskeleton assembly phenotype, high content; cell count; at 10 µM; stronger effect = lower value
row,SMILES,cell count
1,CCOc1ccc(C2=Nn3c(nnc3-c3ccccc3OC)SC2)cc1,36.3%
